≈ marks a conversion by molar mass, not a printed value.
Columns and labels:
[1] = 1-Octanol/water partition coefficient, log P of compound at 2 mg after 24 hrs by spectrophotometry based shake flask method; assay type: physicochemical
[2] = Antioxidant activity assessed as DPPH free radical scavenging activity at 5 ug/ml after 30 mins by spectrophotometric analysis; assay type: functional
[3] = Antioxidant activity assessed as DPPH free radical scavenging activity at 25 ug/ml after 30 mins by spectrophotometric analysis; assay type: functional
[4] = Antioxidant activity assessed as DPPH free radical scavenging activity at 50 ug/ml after 30 mins by spectrophotometric analysis; assay type: functional
[5] = Antioxidant activity assessed as DPPH free radical scavenging activity at 100 ug/ml after 30 mins by spectrophotometric analysis; assay type: functional
[6] = Antioxidant activity assessed as DPPH free radical scavenging activity at 150 ug/ml after 30 mins by spectrophotometric analysis; assay type: functional
[7] = Antioxidant activity assessed as DPPH free radical scavenging activity at 200 ug/ml after 30 mins by spectrophotometric analysis; assay type: functional
[8] = Antioxidant activity assessed as DPPH free radical scavenging activity after 30 mins by spectrophotometric analysis; assay type: functional
Rattus norvegicus [9] = species: Rattus norvegicus; assay: Reduction in intraocular pressure in Wistar rat model of dexamethasone-induced elevated IOP assessed as change in intraocular pressure at 1 % w/v after 0.5 hrs by tonometry (reference value: 0%); assay type: functional; design: scale not given: the % may be the effect or the level left
Rattus norvegicus [10] = species: Rattus norvegicus; assay: Reduction in intraocular pressure in Wistar rat model of dexamethasone-induced elevated IOP assessed as change in intraocular pressure at 1 % w/v after 1 hr by tonometry (reference value: 0%); assay type: functional; design: scale not given: the % may be the effect or the level left
Rattus norvegicus [11] = species: Rattus norvegicus; assay: Reduction in intraocular pressure in Wistar rat model of dexamethasone-induced elevated IOP assessed as change in intraocular pressure at 1 % w/v after 1.5 hrs by tonometry (reference value: 0%); assay type: functional; design: scale not given: the % may be the effect or the level left
Rattus norvegicus [12] = species: Rattus norvegicus; assay: Reduction in intraocular pressure in Wistar rat model of dexamethasone-induced elevated IOP assessed as change in intraocular pressure at 1 % w/v after 2 hrs by tonometry (reference value: 0%); assay type: functional; design: scale not given: the % may be the effect or the level left
Rattus norvegicus [13] = species: Rattus norvegicus; assay: Reduction in intraocular pressure in Wistar rat model of dexamethasone-induced elevated IOP assessed as change in intraocular pressure at 1 % w/v after 2.5 hrs by tonometry (reference value: 0%); assay type: functional; design: scale not given: the % may be the effect or the level left
Rattus norvegicus [14] = species: Rattus norvegicus; assay: Reduction in intraocular pressure in Wistar rat model of dexamethasone-induced elevated IOP assessed as change in intraocular pressure at 1 % w/v after 3 hrs by tonometry (reference value: 0%); assay type: functional; design: scale not given: the % may be the effect or the level left
Rattus norvegicus [15] = species: Rattus norvegicus; assay: Reduction in intraocular pressure in Wistar rat model of dexamethasone-induced elevated IOP assessed as change in intraocular pressure at 1 % w/v after 4 hrs by tonometry (reference value: 0%); assay type: functional; design: scale not given: the % may be the effect or the level left
Rattus norvegicus [16] = species: Rattus norvegicus; assay: Reduction in intraocular pressure in Wistar rat model of dexamethasone-induced elevated IOP assessed as change in intraocular pressure at 1 % w/v after 5 hrs by tonometry (reference value: 0%); assay type: functional; design: scale not given: the % may be the effect or the level left
Rattus norvegicus [17] = species: Rattus norvegicus; assay: Reduction in intraocular pressure in Wistar rat model of dexamethasone-induced elevated IOP assessed as change in intraocular pressure at 1 % w/v after 6 hrs by tonometry (reference value: 0%); assay type: functional; design: scale not given: the % may be the effect or the level left
Rattus norvegicus [18] = species: Rattus norvegicus; assay: Reduction in intraocular pressure in Wistar rat model of dexamethasone-induced elevated IOP assessed as change in intraocular pressure in contralateral eye at 1 % w/v after 0.5 hrs by tonometry (reference value: 0%); assay type: ADME, organism-based; design: scale not given: the % may be the effect or the level left; settings: in vivo, topical_or_ocular
Rattus norvegicus [19] = species: Rattus norvegicus; assay: Reduction in intraocular pressure in Wistar rat model of dexamethasone-induced elevated IOP assessed as change in intraocular pressure in contralateral eye at 1 % w/v after 1 hr by tonometry (reference value: 0%); assay type: ADME, organism-based; design: scale not given: the % may be the effect or the level left; settings: in vivo, topical_or_ocular
Rattus norvegicus [20] = species: Rattus norvegicus; assay: Reduction in intraocular pressure in Wistar rat model of dexamethasone-induced elevated IOP assessed as change in intraocular pressure in contralateral eye at 1 % w/v after 1.5 hrs by tonometry (reference value: 0%); assay type: ADME, organism-based; design: scale not given: the % may be the effect or the level left; settings: in vivo
Rattus norvegicus [21] = species: Rattus norvegicus; assay: Reduction in intraocular pressure in Wistar rat model of dexamethasone-induced elevated IOP assessed as change in intraocular pressure in contralateral eye at 1 % w/v after 2 hrs by tonometry (reference value: 0%); assay type: ADME, organism-based; design: scale not given: the % may be the effect or the level left; settings: in vivo
Rattus norvegicus [22] = species: Rattus norvegicus; assay: Reduction in intraocular pressure in Wistar rat model of dexamethasone-induced elevated IOP assessed as change in intraocular pressure in contralateral eye at 1 % w/v after 2.5 hrs by tonometry (reference value: 0%); assay type: ADME, organism-based; design: scale not given: the % may be the effect or the level left; settings: in vivo
Rattus norvegicus [23] = species: Rattus norvegicus; assay: Reduction in intraocular pressure in Wistar rat model of dexamethasone-induced elevated IOP assessed as change in intraocular pressure in contralateral eye at 1 % w/v after 3 hrs by tonometry (reference value: 0%); assay type: ADME, organism-based; design: scale not given: the % may be the effect or the level left; settings: in vivo
Rattus norvegicus [24] = species: Rattus norvegicus; assay: Reduction in intraocular pressure in Wistar rat model of dexamethasone-induced elevated IOP assessed as change in intraocular pressure in contralateral eye at 1 % w/v after 4 hrs by tonometry (reference value: 0%); assay type: ADME, organism-based; design: scale not given: the % may be the effect or the level left; settings: in vivo
Rattus norvegicus [25] = species: Rattus norvegicus; assay: Reduction in intraocular pressure in Wistar rat model of dexamethasone-induced elevated IOP assessed as change in intraocular pressure in contralateral eye at 1 % w/v after 5 hrs by tonometry (reference value: 0%); assay type: ADME, organism-based; design: scale not given: the % may be the effect or the level left; settings: in vivo
Rattus norvegicus [26] = species: Rattus norvegicus; assay: Reduction in intraocular pressure in Wistar rat model of dexamethasone-induced elevated IOP assessed as change in intraocular pressure in contralateral eye at 1 % w/v after 6 hrs by tonometry (reference value: 0%); assay type: ADME, organism-based; design: scale not given: the % may be the effect or the level left; settings: in vivo
Rattus norvegicus [27] = species: Rattus norvegicus; assay: Reduction in intraocular pressure in Wistar rat model of dexamethasone-induced elevated IOP assessed as onset time for reduction in intraocular pressure at 1 % w/v by tonometry; assay type: functional
Rattus norvegicus [28] = species: Rattus norvegicus; assay: Reduction in intraocular pressure in Wistar rat model of dexamethasone-induced elevated IOP assessed as peak effect time for reduction in intraocular pressure at 1 % w/v by tonometry; assay type: functional, organism-based
Rattus norvegicus [29] = species: Rattus norvegicus; assay: Reduction in intraocular pressure in Wistar rat model of dexamethasone-induced elevated IOP assessed as reduction in intraocular pressure at peak effect time at 1 % w/v by tonometry; assay type: functional; design: scale not given: the % may be the effect or the level left

| SMILES | logP at 24 h [1] | Activity [2] | Activity [3] | Activity [4] | Activity [5] | Activity [6] | Activity [7] | IC50 [8] | Activity (Rattus norvegicus [9]) | Activity (Rattus norvegicus [10]) | Activity (Rattus norvegicus [11]) | Activity (Rattus norvegicus [12]) | Activity (Rattus norvegicus [13]) | Activity (Rattus norvegicus [14]) | Activity (Rattus norvegicus [15]) | Activity (Rattus norvegicus [16]) | Activity (Rattus norvegicus [17]) | Activity (Rattus norvegicus [18]) | Activity (Rattus norvegicus [19]) | Activity (Rattus norvegicus [20]) | other results |
| --- | --- | --- | --- | --- | --- | --- | --- | --- | --- | --- | --- | --- | --- | --- | --- | --- | --- | --- | --- | --- | --- |
| COc1ccccc1N1CCN(CC(=O)Nc2nc3ccccc3[nH]2)CC1 | 0.97 | 10.8% | 21.3% | 35.7% | 43.2% | 55.2% | 64.5% | 132.65 µg/mL (≈ 363 µM) | 4.2% | 5.37% | 9.48% | 16.5% | 11.02% | 7.35% | 4.53% | 1.73% | 0.9% | 1.27% | 2.1% | 4.1% | Activity (Rattus norvegicus [21]): 4.77%; Activity (Rattus norvegicus [22]): 2.5%; Activity (Rattus norvegicus [23]): 1.7%; Activity (Rattus norvegicus [24]): 0%; Activity (Rattus norvegicus [25]): 0%; Activity (Rattus norvegicus [26]): 0%; Time (Rattus norvegicus [27]): 0.5 h; Tmax (Rattus norvegicus [28]): 2.5 h; Activity (Rattus norvegicus [29]): 49.92% |
| O=C(CN1CCN(Cc2ccccc2)CC1)Nc1nc2ccccc2[nH]1 | 1.97 | 6.28% | 22.1% | 33.3% | 47% | 52.6% | 63.9% | 134.71 µg/mL (≈ 386 µM) | 3.4% | 5.58% | 6.85% | 8.65% | 11.45% | 10.5% | 5.66% | 2.9% | 0.9% | 1.67% | 2.47% | 3.13% | Activity (Rattus norvegicus [21]): 3.2%; Activity (Rattus norvegicus [22]): 2.72%; Activity (Rattus norvegicus [23]): 2.32%; Activity (Rattus norvegicus [24]): 1.26%; Activity (Rattus norvegicus [25]): 0.83%; Activity (Rattus norvegicus [26]): 0.47%; Time (Rattus norvegicus [27]): 0.5 h; Tmax (Rattus norvegicus [28]): 2.5 h; Activity (Rattus norvegicus [29]): 35.52% |
| CCN1CCN(CC(=O)Nc2nc3ccccc3[nH]2)CC1 | 1.09 | 13.3% | 26.6% | 35.7% | 45.7% | 57.5% | 65.8% | 124.91 µg/mL (≈ 435 µM) | 4.12% | 6.23% | 9.55% | 10.6% | 12.25% | 8.93% | 5.65% | 0.53% | 0.45% | 1.4% | 2.37% | 3.73% | Activity (Rattus norvegicus [21]): 5.22%; Activity (Rattus norvegicus [22]): 4.8%; Activity (Rattus norvegicus [23]): 2.62%; Activity (Rattus norvegicus [24]): 0%; Activity (Rattus norvegicus [25]): 0%; Activity (Rattus norvegicus [26]): 0%; Time (Rattus norvegicus [27]): 0.5 h; Tmax (Rattus norvegicus [28]): 2.5 h; Activity (Rattus norvegicus [29]): 45.02% |
| O=C(CN1CCN(c2ccccc2)CC1)Nc1nc2ccccc2[nH]1 | 1.29 | 4.62% | 11.5% | 24.1% | 32.2% | 40.6% | 62.1% | 165.52 µg/mL (≈ 493 µM) | 2.55% | 4% | 7.75% | 11% | 13.5% | 12.18% | 7.77% | 1.33% | 0.27% | 1.97% | 3.25% | 4.12% | Activity (Rattus norvegicus [21]): 5%; Activity (Rattus norvegicus [22]): 5.65%; Activity (Rattus norvegicus [23]): 3.6%; Activity (Rattus norvegicus [24]): 1.55%; Activity (Rattus norvegicus [25]): 0%; Activity (Rattus norvegicus [26]): 0%; Time (Rattus norvegicus [27]): 0.5 h; Tmax (Rattus norvegicus [28]): 2.5 h; Activity (Rattus norvegicus [29]): 45.73% |
| O=C(CN1CCN(c2ccc([N+](=O)[O-])cc2)CC1)Nc1nc2ccccc2[nH]1 | 1.94 | 16.1% | 33.9% | 44.8% | 51.7% | 64.9% | 76.7% | 95.49 µg/mL (≈ 251 µM) | 3.33% | 5.85% | 7.68% | 11.88% | 16% | 10.52% | 7.82% | 4.75% | 1.2% | 0.83% | 1.2% | 3.5% | Activity (Rattus norvegicus [21]): 4.87%; Activity (Rattus norvegicus [22]): 5.23%; Activity (Rattus norvegicus [23]): 4.2%; Activity (Rattus norvegicus [24]): 1.6%; Activity (Rattus norvegicus [25]): 0%; Activity (Rattus norvegicus [26]): 0%; Time (Rattus norvegicus [27]): 0.5 h; Tmax (Rattus norvegicus [28]): 2.5 h; Activity (Rattus norvegicus [29]): 51.56% |
